Read-outs that look alike come from different tables or passages of the source.
Target: MLK3 (Homo sapiens (Human), UniProt Q16584)
Assay: Radiometric filter plate MLK3 assay
Type: biochemical
Conditions: read-out: MK3 IC50
Protocol: After a twenty minute incubation, the reactions were washed through filter plates and read on a scintillation counter. Results are shown in Table 9 below, in which +++ indicates ≤0.1 μM, ++ indicates >0.1 μM and ≤1 μM, and + indicates >1 μM.

[1] = 2 μM cold ATP (Km), 1 μM inactive MKK7b, twenty minute incubation

Sequence of MLK3 (Q16584 whole entry): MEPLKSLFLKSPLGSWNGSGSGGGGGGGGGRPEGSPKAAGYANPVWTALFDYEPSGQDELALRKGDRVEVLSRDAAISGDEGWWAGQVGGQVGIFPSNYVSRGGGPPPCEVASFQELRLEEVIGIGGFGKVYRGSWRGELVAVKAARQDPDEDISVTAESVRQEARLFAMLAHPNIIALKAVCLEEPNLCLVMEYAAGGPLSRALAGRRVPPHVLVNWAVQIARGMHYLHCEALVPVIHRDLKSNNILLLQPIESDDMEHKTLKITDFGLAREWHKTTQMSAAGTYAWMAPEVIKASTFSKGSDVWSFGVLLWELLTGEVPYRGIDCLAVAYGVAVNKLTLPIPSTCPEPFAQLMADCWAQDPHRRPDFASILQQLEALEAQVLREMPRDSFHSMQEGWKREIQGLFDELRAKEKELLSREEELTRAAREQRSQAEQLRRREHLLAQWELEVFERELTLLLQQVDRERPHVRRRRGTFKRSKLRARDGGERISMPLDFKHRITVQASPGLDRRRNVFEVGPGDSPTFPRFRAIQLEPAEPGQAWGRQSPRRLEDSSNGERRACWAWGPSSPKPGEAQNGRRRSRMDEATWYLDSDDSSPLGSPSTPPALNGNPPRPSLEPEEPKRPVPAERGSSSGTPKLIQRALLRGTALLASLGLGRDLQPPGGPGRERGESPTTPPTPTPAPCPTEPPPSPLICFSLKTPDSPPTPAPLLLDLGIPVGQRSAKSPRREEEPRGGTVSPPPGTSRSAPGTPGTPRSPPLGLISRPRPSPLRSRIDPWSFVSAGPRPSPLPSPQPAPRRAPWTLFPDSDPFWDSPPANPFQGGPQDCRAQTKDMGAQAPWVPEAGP

| SMILES | IC50 [1] [nM] | IC50 [nM] |
| --- | --- | --- |
| O=c1[nH]c2ncc(-c3cc(F)c(O)c(F)c3)nc2n1-c1ccc2[nH]ccc2c1 [Example 59, 6-(3,5-difluoro-4-hydroxyphenyl)-1-(1H-indol-5-yl)-1H-imidazo[4,5-b]pyrazin-2(3H)-one] | < 100 | – |
| COc1cc(-c2cnc3[nH]c(=O)n(-c4ccc5[nH]ccc5c4)c3n2)ccc1N [Example 60, 6-(4-amino-3-methoxyphenyl)-1-(1H-indol-5-yl)-1H-imidazo[4,5-b]pyrazin-2(3H)-one] | < 100 | – |
| O=c1[nH]c2ncc(-c3cc(F)cc(F)c3)nc2n1-c1ccc2[nH]ccc2c1 [Example 61, 6-(3,5-difluorophenyl)-1-(1H-indol-5-yl)-1H-imidazo[4,5-b]pyrazin-2(3H)-one] | > 1000 | – |
| COc1cc(-c2cnc3[nH]c(=O)n(-c4ccc5[nH]ccc5c4)c3n2)cc(OC)c1O [Example 62, 6-(4-hydroxy-3,5-dimethoxyphenyl)-1-(1H-indol-5-yl)-1H-imidazo[4,5-b]pyrazin-2(3H)-one] | < 100 | – |
| COc1cc(OC)cc(-c2cnc3[nH]c(=O)n(-c4ccc5[nH]ccc5c4)c3n2)c1 [Example 65, 6-(3,5-dimethoxyphenyl)-1-(1H-indol-5-yl)-1H-imidazo[4,5-b]pyrazin-2(3H)-one] | > 1000 | – |
| CN1CCN(c2cc(-c3cnc4[nH]c(=O)n(-c5ccc6[nH]ccc6c5)c4n3)ccn2)CC1 [Example 66, 1-(1H-indol-5-yl)-6-(2-(4-methylpiperazin-1-yl)pyridin-4-yl)-1H-imidazo[4,5-b]pyrazin-2(3H)-one] | > 1000 | – |
| COc1ccc(-n2c(=O)[nH]c3ncc(-c4ccc(OC)c(OC)c4)nc32)cc1 [Example 69, 6-(3,4-dimethoxyphenyl)-1-(4-methoxyphenyl)-1H-imidazo[4,5-b]pyrazin-2(3H)-one] | > 1000 | – |
| COc1ccc(-n2c(=O)[nH]c3ncc(-c4ccc(O)cc4)nc32)cc1 [Example 70, 6-(4-hydroxyphenyl)-1-(4-methoxyphenyl)-1H-imidazo[4,5-b]pyrazin-2(3H)-one] | > 1000 | – |
| COc1ccc(-n2c(=O)[nH]c3ncc(-c4ccncc4)nc32)cc1 [Example 71, 1-(4-methoxyphenyl)-6-(pyridin-4-yl)-1H-imidazo[4,5-b]pyrazin-2(3H)-one] | > 1000 | – |
| COc1cc(-c2cnc3[nH]c(=O)n(-c4ccc5[nH]c(C)cc5c4)c3n2)cc(OC)c1OC [Example 72, 1-(2-methyl-1H-indol-5-yl)-6-(3,4,5-trimethoxyphenyl)-1H-imidazo[4,5-b]pyrazin-2(3H)-one] | < 100 | – |
| Cc1cc2cc(-n3c(=O)[nH]c4ncc(-c5cc(Cl)cc(Cl)c5)nc43)ccc2[nH]1 [Example 73, 6-(3,5-dichlorophenyl)-1-(2-methyl-1H-indol-5-yl)-1H-imidazo[4,5-b]pyrazin-2(3H)-one] | > 1000 | – |
| COc1cc(-c2cnc3[nH]c(=O)n(C4CCCC4)c3n2)cc(OC)c1OC [Example 74, 1-cyclopentyl-6-(3,4,5-trimethoxyphenyl)-1H-imidazo[4,5-b]pyrazin-2(3H)-one] | < 100 | – |
| COc1ccc(-c2cnc3[nH]c(=O)n(C4CCCC4)c3n2)cc1OC [Example 75, 1-cyclopentyl-6-(3,4-dimethoxyphenyl)-1H-imidazo[4,5-b]pyrazin-2(3H)-one] | > 1000 | – |
| O=c1[nH]c2ncc(-c3ccncc3)nc2n1C1CCCC1 [Example 77, 1-cyclopentyl-6-(pyridin-4-yl)-1H-imidazo[4,5-b]pyrazin-2(3H)-one] | > 1000 | – |
| O=c1[nH]c2ncc(-c3cc(Cl)cc(Cl)c3)nc2n1CC1CC1 [Example 80, 1-(cyclopropylmethyl)-6-(3,5-dichlorophenyl)-1H-imidazo[4,5-b]pyrazin-2(3H)-one] | > 1000 | – |
| O=c1[nH]c2ncc(-c3ccc(O)cc3)nc2n1CC1CC1 [Example 81, 1-(cyclopropylmethyl)-6-(4-hydroxyphenyl)-1H-imidazo[4,5-b]pyrazin-2(3H)-one] | > 1000 | – |
| O=c1[nH]c2ncc(-c3ccncc3)nc2n1CC1CC1 [Example 82, 1-(cyclopropylmethyl)-6-(pyridin-4-yl)-1H-imidazo[4,5-b]pyrazin-2(3H)-one] | > 1000 | – |
| COc1cc(-c2cnc3[nH]c(=O)n(-c4ccc5[nH]ncc5c4)c3n2)cc(OC)c1OC [Example 83, 1-(1H-indazol-5-yl)-6-(3,4,5-trimethoxyphenyl)-1H-imidazo[4,5-b]pyrazin-2(3H)-one] | – | 100 to 1000 |
| Cc1cc2cc(-n3c(=O)[nH]c4ncc(-c5ccncc5)nc43)ccc2[nH]1 [Example 85, 1-(2-methyl-1H-indol-5-yl)-6-(pyridin-4-yl)-1H-imidazo[4,5-b]pyrazin-2(3H)-one] | > 1000 | – |
| O=c1[nH]c2ncc(-c3ccc(N4CCOCC4)cc3)nc2n1CC1CC1 [Example 86, 1-(cyclopropylmethyl)-6-(4-morpholinophenyl)-1H-imidazo[4,5-b]pyrazin-2(3H)-one] | > 1000 | – |
| COc1ccc(-c2cnc3[nH]c(=O)n(-c4ccc5[nH]ncc5c4)c3n2)cc1OC [Example 87, 6-(3,4-dimethoxyphenyl)-1-(1H-indazol-5-yl)-1H-imidazo[4,5-b]pyrazin-2(3H)-one] | > 1000 | – |

| SMILES | IC50 [1] [nM] | IC50 [nM] |
| --- | --- | --- |
| O=c1[nH]c2ncc(-c3ccncc3)nc2n1-c1ccc2[nH]ncc2c1 [Example 88, 1-(1H-indazol-5-yl)-6-(pyridin-4-yl)-1H-imidazo[4,5-b]pyrazin-2(3H)-one] | > 1000 | – |
| O=c1[nH]c2ncc(-c3ccc(N4CCOCC4)cc3)nc2n1-c1ccc2[nH]ncc2c1 [Example 89, 1-(1H-indazol-5-yl)-6-(4-morpholinophenyl)-1H-imidazo[4,5-b]pyrazin-2(3H)-one] | > 1000 | – |
| O=c1[nH]c2ncc(-c3ccc(O)cc3)nc2n1-c1ccc2cn[nH]c2c1 [Example 92, 6-(4-hydroxyphenyl)-1-(1H-indazol-6-yl)-1H-imidazo[4,5-b]pyrazin-2(3H)-one] | > 1000 | – |
| COc1cc(OC)c(-c2cnc3[nH]c(=O)n(C4CCCC4)c3n2)c(OC)c1 [Example 94, 1-cyclopentyl-6-(2,4,6-trimethoxyphenyl)-1H-imidazo[4,5-b]pyrazin-2(3H)-one] | > 1000 | – |
| Cc1cc(C)cc(-c2cnc3[nH]c(=O)n(-c4ccc5cn[nH]c5c4)c3n2)c1 [Example 95, 6-(3,5-dimethylphenyl)-1-(1H-indazol-6-yl)-1H-imidazo[4,5-b]pyrazin-2(3H)-one] | > 1000 | – |
| O=c1[nH]c2ncc(-c3ccncc3)nc2n1-c1ccc2scnc2c1 [Example 98, 1-(benzo[d]thiazol-5-yl)-6-(pyridin-4-yl)-1H-imidazo[4,5-b]pyrazin-2(3H)-one] | > 1000 | – |
| Cc1cc(C)cc(-c2cnc3[nH]c(=O)n(-c4ccc5scnc5c4)c3n2)c1 [Example 99, 1-(benzo[d]thiazol-5-yl)-6-(3,5-dimethylphenyl)-1H-imidazo[4,5-b]pyrazin-2(3H)-one] | > 1000 | – |
| O=c1[nH]c2ncc(-c3ccc(N4CCOCC4)cc3)nc2n1-c1ccc2scnc2c1 [Example 100, 1-(benzo[d]thiazol-5-yl)-6-(4-morpholinophenyl)-1H-imidazo[4,5-b]pyrazin-2(3H)-one] | > 1000 | – |
| COc1cc(-c2cnc3[nH]c(=O)n(C4CCc5ccccc54)c3n2)cc(OC)c1OC (centres unmarked) [Example 101, 1-(2,3-dihydro-1H-inden-1-yl)-6-(3,4,5-trimethoxyphenyl)-1H-imidazo[4,5-b]pyrazin-2(3H)-one] | > 1000 | – |
| COc1cc(-c2cnc3[nH]c(=O)n(-c4ccc5[nH]cnc5c4)c3n2)cc(OC)c1OC [Example 102, 1-(1H-benzo[d]imidazol-5-yl)-6-(3,4,5-trimethoxyphenyl)-1H-imidazo[4,5-b]pyrazin-2(3H)-one] | < 100 | – |
| COc1cc(-c2cnc3[nH]c(=O)n(-c4ccc(N5CCOCC5)nc4)c3n2)cc(OC)c1OC [Example 109, 1-(6-morpholinopyridin-3-yl)-6-(3,4,5-trimethoxyphenyl)-1H-imidazo[4,5-b]pyrazin-2(3H)-one] | > 1000 | – |
| COc1cc(-c2cnc3[nH]c(=O)n(C4Cc5ccccc5C4)c3n2)cc(OC)c1OC [Example 110, 1-(2,3-dihydro-1H-inden-2-yl)-6-(3,4,5-trimethoxyphenyl)-1H-imidazo[4,5-b]pyrazin-2(3H)-one] | < 100 | – |
| COc1cc(-c2cnc3[nH]c(=O)n(-c4cnc5[nH]ccc5c4)c3n2)cc(OC)c1OC [Example 112, 1-(1H-pyrrolo[2,3-b]pyridin-5-yl)-6-(3,4,5-trimethoxyphenyl)-1H-imidazo[4,5-b]pyrazin-2(3H)-one] | < 100 | – |
| COc1cc(-c2cnc3[nH]c(=O)n(-c4ccc5cc[nH]c5c4)c3n2)cc(OC)c1OC [Example 113, 1-(1H-indol-6-yl)-6-(3,4,5-trimethoxyphenyl)-1H-imidazo[4,5-b]pyrazin-2(3H)-one] | < 100 | – |
| Nc1ccc(-c2cnc3[nH]c(=O)n(C4CCCC4)c3n2)cn1 [Example 117, 6-(6-aminopyridin-3-yl)-1-cyclopentyl-1H-imidazo[4,5-b]pyrazin-2(3H)-one] | > 1000 | – |
| COc1cc(-c2cnc3[nH]c(=O)n(C4CCCC4)c3n2)ccc1N [Example 118, 6-(4-amino-3-methoxyphenyl)-1-cyclopentyl-1H-imidazo[4,5-b]pyrazin-2(3H)-one] | – | 100 to 1000 |
| COc1cc(-c2nc3c(nc2Cl)[nH]c(=O)n3CC2CC2)cc(OC)c1OC [Example 119, 5-chloro-1-(cyclopropylmethyl)-6-(3,4,5-trimethoxyphenyl)-1H-imidazo[4,5-b]pyrazin-2(3H)-one] | > 1000 | – |
| COc1cc(-c2cnc3c(c2)C(CC2CC2)C(=O)N3)cc(OC)c1OC (centres unmarked) [Example 123, 3-(cyclopropylmethyl)-5-(3,4,5-trimethoxyphenyl)-1H-pyrrolo[2,3-b]pyridin-2(3H)-one] | 100 to 1000 | – |
| COc1cc(-c2cnc3[nH]c(=O)n(CC4CC4)c3c2)cc(OC)c1OC [Example 125, 1-(cyclopropylmethyl)-6-(3,4,5-trimethoxyphenyl)-1H-imidazo[4,5-b]pyridin-2(3H)-one] | > 1000 | – |
| COc1cc(-c2cnc3ncn(-c4ccc5[nH]ccc5c4)c3n2)cc(OC)c1OC [Example 126, 1-(1H-indol-5-yl)-6-(3,4,5-trimethoxyphenyl)-1H-imidazo[4,5-b]pyrazine] | > 1000 | – |

Reference: patent publication US10485800B2, “Mixed lineage kinase inhibitors for HIV/AIDS therapies” (UNIVERSITY OF ROCHESTER, priority 2012, dated 2019)
